One series concerns MCF7. Nature of the series: cells. The conditions noted are these: Homo sapiens, MCF7, 72 h.
A further series deals with HepG2. Nature of the series: cells. The note with it: Homo sapiens, HepG2, 72 h.
The target of series [1] is Vascular endothelial growth factor receptor 2 (Homo sapiens, UniProt P35968). The experiment in a line: Inhibition of VEGFR2 (unknown origin).
Series [2] can be described thus: Cytotoxicity against human WI-38 cells assessed as inhibition of cell growth incubated for 3 days by MTT assay. It counts as toxicity, cell-based.
In series [3] the target is Epidermal growth factor receptor (Homo sapiens, UniProt P00533). The experiment in a line: Inhibition of EGFR (unknown origin).
The subject of another series is MDA-MB-231. The experiment in a line: Anticancer activity against human MDA-MB-231 cells assessed as inhibition of cell growth incubated for 3 days by MTT assay. Type of series: functional, cell-based. The conditions noted are these: MDA-MB-231, 72 h.

Sequence of Vascular endothelial growth factor receptor 2 (P35968 whole entry): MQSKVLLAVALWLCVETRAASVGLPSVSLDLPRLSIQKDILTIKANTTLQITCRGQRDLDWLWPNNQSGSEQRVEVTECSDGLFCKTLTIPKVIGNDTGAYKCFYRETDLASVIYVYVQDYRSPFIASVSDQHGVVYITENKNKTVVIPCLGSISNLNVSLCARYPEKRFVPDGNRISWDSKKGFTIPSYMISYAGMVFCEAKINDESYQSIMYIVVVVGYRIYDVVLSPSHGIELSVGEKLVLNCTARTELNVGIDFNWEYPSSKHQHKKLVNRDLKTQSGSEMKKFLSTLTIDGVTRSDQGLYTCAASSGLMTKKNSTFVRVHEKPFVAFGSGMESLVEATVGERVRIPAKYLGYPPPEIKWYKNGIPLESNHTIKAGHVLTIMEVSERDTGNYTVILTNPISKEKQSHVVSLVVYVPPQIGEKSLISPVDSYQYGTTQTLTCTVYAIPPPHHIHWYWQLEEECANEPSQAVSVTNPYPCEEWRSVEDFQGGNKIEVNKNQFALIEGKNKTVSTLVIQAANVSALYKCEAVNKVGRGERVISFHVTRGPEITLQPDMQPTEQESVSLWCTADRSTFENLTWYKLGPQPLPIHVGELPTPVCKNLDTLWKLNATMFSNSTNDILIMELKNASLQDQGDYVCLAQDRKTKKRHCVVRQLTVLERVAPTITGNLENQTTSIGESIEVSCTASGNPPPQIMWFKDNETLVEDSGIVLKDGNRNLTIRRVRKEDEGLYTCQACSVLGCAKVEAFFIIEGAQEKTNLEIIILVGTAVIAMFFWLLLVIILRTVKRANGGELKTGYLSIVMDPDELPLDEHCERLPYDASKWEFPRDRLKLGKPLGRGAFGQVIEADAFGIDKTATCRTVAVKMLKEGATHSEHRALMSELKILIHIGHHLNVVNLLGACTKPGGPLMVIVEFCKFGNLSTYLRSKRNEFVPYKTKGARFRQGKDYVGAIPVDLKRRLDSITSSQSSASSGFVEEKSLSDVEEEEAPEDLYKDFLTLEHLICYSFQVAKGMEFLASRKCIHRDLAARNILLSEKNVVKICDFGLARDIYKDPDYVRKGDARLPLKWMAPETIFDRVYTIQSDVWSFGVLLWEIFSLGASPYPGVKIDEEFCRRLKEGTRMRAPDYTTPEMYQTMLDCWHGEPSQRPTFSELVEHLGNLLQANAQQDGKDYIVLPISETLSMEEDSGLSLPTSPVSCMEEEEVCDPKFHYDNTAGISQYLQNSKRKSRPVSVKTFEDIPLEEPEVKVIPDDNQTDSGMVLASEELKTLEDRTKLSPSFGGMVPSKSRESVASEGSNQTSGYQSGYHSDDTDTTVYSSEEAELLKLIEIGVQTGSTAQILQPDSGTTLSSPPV
Sequence of Epidermal growth factor receptor (P00533 whole entry): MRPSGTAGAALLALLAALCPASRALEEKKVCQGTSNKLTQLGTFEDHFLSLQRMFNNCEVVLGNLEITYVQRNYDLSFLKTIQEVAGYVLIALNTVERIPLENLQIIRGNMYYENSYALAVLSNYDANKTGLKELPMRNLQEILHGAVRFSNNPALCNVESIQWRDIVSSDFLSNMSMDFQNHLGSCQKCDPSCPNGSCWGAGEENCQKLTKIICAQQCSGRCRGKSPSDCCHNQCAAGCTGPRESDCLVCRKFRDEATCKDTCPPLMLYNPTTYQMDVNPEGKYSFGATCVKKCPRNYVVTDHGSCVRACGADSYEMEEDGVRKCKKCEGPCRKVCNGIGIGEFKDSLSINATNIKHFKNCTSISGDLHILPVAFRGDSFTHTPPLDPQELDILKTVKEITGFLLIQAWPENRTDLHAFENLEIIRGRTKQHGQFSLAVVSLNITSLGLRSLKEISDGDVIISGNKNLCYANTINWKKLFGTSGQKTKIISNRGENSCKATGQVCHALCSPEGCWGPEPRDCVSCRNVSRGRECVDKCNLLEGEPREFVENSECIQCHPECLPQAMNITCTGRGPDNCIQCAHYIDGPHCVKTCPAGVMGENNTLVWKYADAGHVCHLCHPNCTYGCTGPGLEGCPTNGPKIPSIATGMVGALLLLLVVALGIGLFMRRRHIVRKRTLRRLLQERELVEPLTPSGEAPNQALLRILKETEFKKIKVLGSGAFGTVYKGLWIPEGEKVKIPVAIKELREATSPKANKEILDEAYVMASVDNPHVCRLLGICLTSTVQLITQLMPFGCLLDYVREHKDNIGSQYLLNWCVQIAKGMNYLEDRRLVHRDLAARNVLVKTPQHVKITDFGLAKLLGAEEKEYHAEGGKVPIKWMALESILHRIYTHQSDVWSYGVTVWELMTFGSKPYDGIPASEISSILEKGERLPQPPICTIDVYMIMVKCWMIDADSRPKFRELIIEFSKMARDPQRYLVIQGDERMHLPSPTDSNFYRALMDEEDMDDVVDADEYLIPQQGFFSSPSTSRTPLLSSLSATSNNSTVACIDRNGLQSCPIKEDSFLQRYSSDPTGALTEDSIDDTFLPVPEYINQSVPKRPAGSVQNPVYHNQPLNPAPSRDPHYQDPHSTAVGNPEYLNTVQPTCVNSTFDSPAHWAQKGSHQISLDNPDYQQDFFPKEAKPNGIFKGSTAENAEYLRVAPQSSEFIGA
Description for HepG2: Anticancer activity against human HepG2 cells assessed as inhibition of cell growth incubated for 3 days by MTT assay
Description for MCF7: Anticancer activity against human MCF7 cells assessed as inhibition of cell growth incubated for 3 days by MTT assay

Consider `COc1cc(-c2nc3ccccc3s2)ccc1OCC(=O)NNC(=O)CN[C@@H](CS)C(=O)O`, for which the IC50 in the series on MCF7 came to 1230 nM; in the series on HepG2, 3.12 µM.
In the case of `CCOC(=O)[C@H](Cc1c[nH]c2ccccc12)NCC(=O)NNC(=O)COc1ccc(-c2nc3ccccc3s2)cc1OC`, the IC50 in series [1] turned out to be 178 nM; in series [3] it was 114 nM; with MDA-MB-231 it was 5.45 µM; in the series with MCF7, 730 nM; with HepG2, 2.54 µM. The IC50 at 3 days in series [2] came to 92.7 µM.
For the compound `COc1cc(-c2nc3ccccc3s2)ccc1OCC(=O)NNC(=O)CN1CCC[C@H]1C(=O)O`, the IC50 was determined as 188 nM in series [1]; 342 nM in series [3]; 8.88 µM in the series on MDA-MB-231; 840 nM with MCF7; 2.65 µM in the series with HepG2. For the same compound, the IC50 at 3 days in series [2] came out at 68.6 µM.
Turning to `COc1cc(-c2nc3ccccc3s2)ccc1OCC(=O)NNC(=O)CN[C@@H](CS(=O)(=O)O)C(=O)O`, the IC50 stood at 1870 nM in the series on MCF7 and 3.69 µM with HepG2.
The like results for `CCOC(=O)[C@@H](NCC(=O)NNC(=O)COc1ccc(-c2nc3ccccc3s2)cc1OC)[C@@H](C)CC` were, in that order, 1950 nM and 3.46 µM.
With `CCOC(=O)[C@H](CCSC)NCC(=O)NNC(=O)COc1ccc(-c2nc3ccccc3s2)cc1OC`, the IC50 in the series with MCF7 amounted to 1760 nM; with HepG2 it was 3.33 µM.
The like results for `CCOC(=O)CN(C)CC(=O)NNC(=O)COc1ccc(-c2nc3ccccc3s2)cc1OC` were, in that order, 1980 nM and 3.18 µM.
The like results for `CCOC(=O)[C@H](CCCNC(=N)NCC(=O)NNC(=O)COc1ccc(-c2nc3ccccc3s2)cc1OC)N[N+](=O)[O-]` were, in that order, 1950 nM and 3.73 µM.
On to `CCOC(=O)[C@H](Cc1c[nH]cn1)NCC(=O)NNC(=O)COc1ccc(-c2nc3ccccc3s2)cc1OC`, for which the IC50 in series [1] came to 152 nM; in series [3], 157 nM; in the series on MDA-MB-231 it was 5.67 µM; in the series with MCF7 it was 740 nM; in the series on HepG2 it was 2.68 µM. The IC50 at 3 days in series [2] amounted to 89.4 µM.
Consider `CCOC(=O)[C@H](CS(=O)(=O)O)NCC(=O)NNC(=O)COc1ccc(-c2nc3ccccc3s2)cc1OC`, for which the IC50 in the series with MCF7 is 1990 nM; in the series on HepG2 it was 3.36 µM.
In the same order, the values of `CCOC(=O)[C@H](CS)NCC(=O)NNC(=O)COc1ccc(-c2nc3ccccc3s2)cc1OC` are 2880 nM and 3.76 µM.
The like results for `CC[C@H](C)[C@@H](NCC(=O)NNC(=O)COc1ccc(-c2nc3ccccc3s2)cc1OC)C(=O)O` were, in that order, 1790 nM and 3.99 µM.
The like results for `CCOC(=O)[C@H](NCC(=O)NNC(=O)COc1ccc(-c2nc3ccccc3s2)cc1OC)[C@@H](C)CC` were, in that order, 2900 nM and 3.97 µM.
Consider `COc1cc(-c2nc3ccccc3s2)ccc1OCC(=O)NNC(O)CN(C)CC(=O)O` (stereo not drawn), for which the IC50 in the series with MCF7 was determined as 1960 nM; with HepG2, 3.03 µM.
The like results for `CC[C@H](C)[C@H](NCC(=O)NNC(=O)COc1ccc(-c2nc3ccccc3s2)cc1OC)C(=O)O` were, in that order, 1710 nM and 3.54 µM.
The like results for `CCOC(=O)[C@H](CS)N(CC(=O)NNC(=O)COc1ccc(-c2nc3ccccc3s2)cc1OC)C(C)=O` were, in that order, 1890 nM and 3.01 µM.
For `CCOC(=O)[C@@H]1CCCN1CC(=O)NNC(=O)COc1ccc(-c2nc3ccccc3s2)cc1OC`, the IC50 in series [1] is 163 nM; in series [3], 109 nM; in the series on MDA-MB-231, 7.28 µM; in the series with MCF7 it was 770 nM; with HepG2, 2.8 µM. Moreover, in series [2], the IC50 at 3 days is 75.1 µM.
Turning to `COc1cc(-c2nc3ccccc3s2)ccc1OCC(=O)NNC(=O)CN[C@@H](CCSC)C(=O)O`, the IC50 amounted to 1950 nM in the series with MCF7 and 3.78 µM in the series with HepG2.
With `COc1cc(-c2nc3ccccc3s2)ccc1OCC(=O)NNC(=O)CN[C@@H](Cc1c[nH]c2ccccc12)C(=O)O`, the IC50 in series [1] came to 162 nM; in series [3] it was 209 nM; with MDA-MB-231, 10.5 µM; in the series on MCF7, 830 nM; with HepG2 it was 2.58 µM. Moreover, in series [2], the IC50 at 3 days worked out at 60.8 µM.
Consider `COc1cccc2c1C(=O)c1c(O)c3c(c(O)c1C2=O)C[C@@](O)(C(=O)CO)C[C@@H]3O[C@H]1C[C@H](N)[C@H](O)[C@H](C)O1` [DOXORUBICIN], for which the IC50 at 3 days in series [2] came out at 79.7 µM. The IC50 was determined as 7.46 µM in the series with MDA-MB-231 and 2.75 µM in the series on HepG2.
For `COc1cc(-c2nc3ccccc3s2)ccc1OCC(=O)NNC(=O)CCl`, the IC50 worked out at 780 nM with MCF7 and 2.89 µM in the series with HepG2.
In the same order, the values of `COc1cc(-c2nc3ccccc3s2)ccc1OCC(=O)NNC(=O)CN(C(C)=O)[C@@H](CS)C(=O)O` are 1750 nM and 3.42 µM.
In the same order, the values of `COc1cc(-c2nc3ccccc3s2)ccc1OCC(=O)NNC(=O)CNC(=N)NCCC[C@H](N[N+](=O)[O-])C(=O)O` are 1960 nM and 3.49 µM.
`COc1cc(-c2nc3ccccc3s2)ccc1OCC(=O)NNC(=O)CN[C@@H](Cc1c[nH]cn1)C(=O)O`: the IC50 was determined as 171 nM in series [1]; 305 nM in series [3]; 11 µM in the series on MDA-MB-231; 890 nM in the series with MCF7; 2.8 µM in the series with HepG2. In addition, the half-maximal inhibitory concentration (IC50) at 3 days in series [2] came out at 49.5 µM.

(Values after ChEMBL document CHEMBL5131433, “Novel benzothiazole-based dual VEGFR-2/EGFR inhibitors targeting breast and liver cancers: Synthesis, cytotoxic activity, QSAR and molecular docking studies” (Bioorg Med Chem Lett, 2022).)
